This is an account of results in patent publication US9599759B2, “Patterned polarizing film and its production process” (Sumitomo Chemical Company, Limited, priority 2014, dated 2017).

This series in a line: Saturated solubility at 23° C. of each dichroic dye in certain solvents (LC quantification). The class given is physicochemical. The note with it: 24 hours agitation; for saturated solubility in ethanol: solvent ethanol; for saturated solubility in ethyl acetate: solvent ethyl acetate; for saturated solubility in isopropyl alcohol: solvent isopropyl alcohol; for saturated solubility in methanol: solvent methanol; for saturated solubility in propylene glycol 1-monomethyl ether 2-acetate: solvent propylene glycol 1-monomethyl ether 2-acetate; for saturated solubility in propylene glycol 1-monomethyl ether: solvent propylene glycol 1-monomethyl ether; for saturated solubility in tetrahydrofuran: solvent tetrahydrofuran. As for the experimental part:
[Measurement Method of Saturated Solubility]
This solution was sampled, and was dissolved together with 5 ml of a standard liquid in tetrahydrofuran to prepare a measurement solution. […] The standard liquid was prepared from 10 ml of hexylbenzene and 1000 ml of acetonitrile.
The liquid chromatograph (LC) measurement was carried out in the following condition.
Used column: KinetexC18, 2.6 μm, 100 mm×4.6 mm diameter
Column temperature: 40° C.
• (A liquid) 0.1%(v/v)—TFA/water • (B liquid) 0.1%(v/v)—TFA/acetonitrile 500/THF 50% • Gradient condition 0 min A liquid 60%, B liquid 40% • 30 min A liquid 0%, B liquid 100% • 35 min A liquid 0%, B liquid 100% • 35.1 min A liquid 60%, B liquid 40% • 45 min STOP TOTAL 45 min • Flow volume: 1.0 mL/min • Injection amount: 5 μL • Detection method: UV (254 nm)

Turning to `CCCCc1ccc(N=Nc2ccc(N=Nc3ccc(OCCC)cc3)cc2)cc1` [dichroic dye 2], the “saturated solubility in ethanol” value came to 0.001 % by mass, the “saturated solubility in ethyl acetate” value worked out at 1.3 % by mass, the “saturated solubility in isopropyl alcohol” value is 0.043 % by mass and the “saturated solubility in methanol” value turned out to be 0.001 % by mass. In addition, the “saturated solubility in propylene glycol 1-monomethyl ether 2-acetate” value was found to be 0.89 % by mass, the “saturated solubility in propylene glycol 1-monomethyl ether” value came to 0.336 % by mass and the “saturated solubility in tetrahydrofuran” value stood at 4.5 % by mass.

As to `CCCCc1ccc(N=Nc2ccc(N=Nc3ccc(N4CCCC4)cc3)cc2)cc1` [dichroic dye 1], the “saturated solubility in ethanol” value was 0.003 % by mass, the “saturated solubility in ethyl acetate” value is reported as 0.059 % by mass, the “saturated solubility in isopropyl alcohol” value is recorded as 0.002 % by mass and the “saturated solubility in methanol” value came to 0.001 % by mass. Also, the “saturated solubility in propylene glycol 1-monomethyl ether 2-acetate” value turned out to be 0.077 % by mass, the “saturated solubility in propylene glycol 1-monomethyl ether” value is given as 0.028 % by mass and the “saturated solubility in tetrahydrofuran” value is recorded as 0.33 % by mass.
